Like-named read-outs stand apart in the source and are kept apart here. Marks after values point to notes of the source that are not given here.

Experimental findings from patent EP3124080A1, “SEMISYNTHETIC BILE ACIDS FOR INJECTION LIPOLYSIS” (Merz Pharma GmbH & Co. KGaA, priority 2015, dated 2017) are described below.

Data set [1] relates to in vitro matured adipocytes. Put plainly: alamar blue cell viability assay (adipocytolytic potential), mature adipocytes. The class given is cell-based. Conditions: for Viability Adipocytes (%): 48h incubation, vehicle = 100%. The protocol:
(§1) The following experimental setup was used for determination of adipocytolytic potential of test compounds with preadipocytes and mature adipocytes: • Preadipocytes (PromoCell) were seeded in Preadipocyte Growth Medium at 45000 cells/ cm^2 to allow attachment overnight. Cells were cultured at 37°C and 5% CO2 untill postconfluence. Differentiation was started with incubation of cells in Differentiation Medium for 7 days followed by incubation in Nutrition medium for 14 further days. After differentiation process, mature adipocytes were incubated with indicated concentration of indicated triterpenes.
(§2) 6 replicates of each test compound concentration were tested. Each plate included a negative control and a compound interference control (for all concentrations, duplicates).
(§3) Cell viability as surrogate for adipocytolytic potential of compounds were analysed by alamar blue assay. In brief, 20µl of a 0,1mg/ml Resazurin sodium salt (Sigma; R7017-1G) solution was added to each well 48 hrs after compound incubation. The cells were incubated for 90 min at 37°C and 5% CO2 and the resulting conversion of resazurin to resorufin was measured by a fluorescence plate reader at 590 nm. Vehicle controls were set as 100%. IC50-values were analysed using SigmaBlotV13.
(In general: Resazurin is reduced to fluorescent resorufin, in cell work by metabolically active cells.)

Data set [2] concerns inguinal fat pad. Put plainly: injection into inguinal fat pads of rats: fat pad weight, volume, fat content. The class given is in vivo, Male Sprague-Dawley rats. The conditions noted are these: 3 sites 100 µl each, days 1, 7, 14, analysis day 35, mean ±SEM. The protocol:
All work was done under sterile extractor hood/luminar airflow working environment. Final solution were filtered through sterile 0.22um Millipore PES membrane syringer filter unit. […].
To 0.4099g Na3PO4 water for injection was added to a final weight of 50 g.
For the highest (2%) concentration, 100 mg of obeticholic acid were added with 2.75 ml of above solution, 112,5 mg of glycerol and finally 2.038 ml of sterile water to make 5 ml solution. Lower concentrations were adjusted accordingly.
Male Sprague-Dawley rats (200-300g of body weight) were used for this study (Vital River Laboratories Animal Ltd., China) and were housed in a temperature (22 ± 3 °C) and humidity (55 ± 15 %) controlled AAALAC accredited facility. Animals were provided with food (Keaoxieli certified Rodent Diet) and sterile water ad libitum. The animals were on a 12-hour light/dark (6:00 am /6:00 pm) cycle and acclimated for 1 week prior to the study. Rats were housed in a plexiglas cage (3 rats per cage).
(§4) After shaving the skin the inguinal area, rats, were injected into the inguinal fat pads (3 injection sites per fat pad for every rat, 100ul/per site). For all groups, 6 rats were injected with sterile vehicle, or obeticholic acid on day 1, day 7 and day 14 in the right pad and left fat pad was intact. For the other 6 rats were injected with sterile vehicle obeticholic acid on day 1, day 7 and day 14 in the left pad and right pad was intact.
Isolated inguinal fat pad volume was measured using YLS - 7 b digit volume measuring instrument (Jinan YiYan Technology Development co., LTD, Shandong, P.R. China) according to manufacturer instructions.
Rats were euthanized and the abdomen was cut and opened. Inguinal fat pads were exposed and a photo was taken. Then inguinal fat pads were isolated, and a gross photo was taken again followed by weighting of the pad. Total fat lipids were extracted from the inguinal fat using a protocol adapted from Folch et al. Fresh fat tissue (1g) was homogenized in 20ml of a 2:1 chloroform-methanol solution. The homogenate was filtered using a fat-free filter paper and funneled into a pre-weighted 50-ml glass vial. Then the previous vial and funnel were washed with an additional 5ml of a 2:1 chloroform-methanol solution. Afterwards 2.5 ml of 0.9% NaCl was added. The lipids were separated by centrifugation at 1,800 g, 10°C for 5 min; the aqueous layer was discarded and the tube was flushed with nitrogen until the lipid pellet was dry. The tube containing the lipid pellet was reweighed, and total lipid extracted per gram of total tissue was calculated.
Results were expressed as mean ± SEM. Statistical analysis was performed using ANOVA on ranks, followed if significant by Mann-Whitney test. The difference was considered significant when p< 0.05.
. Herein, the values representmean ±SEM. *-P<0.05 vs control. Table 5 Effect of obeticholic acid on inguinal fat pad in rats.

The subject of data set [3] is Preadipocytes (PromoCell). Put plainly: alamar blue cell viability assay (adipocytolytic potential), preadipocytes. The class given is cell-based. Conditions: for IC50: viability, 48 hrs, read-out: IC50 [µM] Pre-ad ipocytes; for Viability Preadipocytes (%): 48h incubation, vehicle = 100%. The protocol: as §1, §2, §3
The subject of data set [4] is inguinal fat pad. Put plainly: fat histology analysis of injected inguinal fat pads (H&E). The format is in vivo, Male Sprague-Dawley rats. The protocol:
as §4
Inguinal fat embedded in paraffin were cross-sectioned (5 µm each). For each mouse, a serial section at intervals of 40 to 50 µm was made and one section was collected for every 10 sections. In total, five sections per animal were used for Hematoxylin and eosin (H&E) stain and adipocyte number and size analysis. Histologic examination was performed by well-trained pathologists in a double-blind fashion. Three factors were examined in each sample: the quantity of normal fat, fat necrosis and inflammatory activity. […]. H&E staining was used in evaluation of the inflammatory status.

A further data set relates to adipocytes. Put plainly: Caspase-Glo 3/7 Assay, apoptosis induction in adipocytes. Conditions: vehicle basal apoptosis = 100%. The class given is cell-based. As for the experimental part:
as §1
For analysing the potential of compounds to induce apoptosis the Caspase-Glo® 3/7 Assay was used (Promega) as recommended by the supplier. In brief, 100µl of Caspase Reagent was added to 100µl cell culture medium and cells were incubated at 37°C and 5% CO2 for 1 hr. Luminescence signal was measured with a SynergyH4 plate reader. Vehicle controls were used to define basal apoptosis as 100%. Table 1 Impact on viability of in vitro matured adipocytes after 48h incubation with indicated compound in increasing concentration

Where [5] appears, read: Adipocyte, viability, 48 hrs, read-out: IC50 [µM] Adipocytes.
Setting [6] is: 48 h, read-out: Viability Preadipocytes (%).

As a reminder, the viability is a read-out of living cells in per cent, often relative to untreated cells. Regarding `CC[C@H]1[C@@H](O)[C@@H]2[C@H](CC[C@]3(C)[C@@H]([C@H](C)CCC(=O)O)CC[C@@H]23)[C@@]2(C)CC[C@@H](O)C[C@@H]12` [Obeticholic acid, (3α,5β,6α,7α)-6-ethyl-3,7-dihydroxycholan-24-oic acid], the “Viability Adipocytes (%)” value in data set [1] (100 µM) came out at 49.17%. Besides, the viability at 10 µM came to 101% in data set [1] (Adipocyte, 48 h, read-out: Viability Adipocytes (%), 10 µM, 48h incubation, vehicle = 100%) and 93% in data set [3] (setting [6]). Besides, the viability at 50 µM in data set [1] (Adipocyte, 48 h, read-out: Viability Adipocytes (%), 50 µM, 48h incubation, vehicle = 100%) was 89.6%; in data set [3] (setting [6]) it was 83.1%. The viability at 100 µM in data set [1] (Adipocyte, 48 h, read-out: Viability Adipocytes (%), 100 µM, 48h incubation, vehicle = 100%) is about 50%; in data set [3] (setting [6]) it was 21.4%. Also, the viability at 300 µM in data set [1] (Adipocyte, 48 h, read-out: Viability Adipocytes (%), 300 µM, 48h incubation, vehicle = 100%) came out at 0.29%; in data set [3] (setting [6]) it was 0.41%. Besides, the IC50 in data set [1] (setting [5]) came to 93.9 µM; in data set [3] it was 87.2 µM. Moreover, the entries for the “Inguinal fat pad fat content difference to contralateral (sham) pad (g) N=8” value in the data set on inguinal fat pad [2] (0.5 % solution), in the data set on inguinal fat pad [2] (1 % solution) and in the data set on inguinal fat pad [2] (2 % solution) were -0.169±0.02* g, -0.387±0.04* g and -0.523±0.05* g, respectively. In addition, the results for the “Inguinal fat pad weight difference to contralateral (sham) pad (g) N=12” value in the data set with inguinal fat pad [2] (0.5 % solution), in the data set on inguinal fat pad [2] (1 % solution) and in the data set with inguinal fat pad [2] (2 % solution) were -0.192±0.04* g, -0.352±0.03* g and -0.526±0.07* g, respectively. The entries for the “inflammation (histology)” value with inguinal fat pad [4] (0.5 % solution injected into inguinal fat pad), in the data set on inguinal fat pad [4] (1 % solution injected into inguinal fat pad) and with inguinal fat pad [4] (2 % solution injected into inguinal fat pad) were “not”, “not” and “increase in inflammation”, respectively. The “fat necrosis as measured by histology” value in the data set on inguinal fat pad [4] (0.5, 1 and 2 % solutions) is “not affected”. Further, the “normal fat content as measured by histology” value in the data set with inguinal fat pad [4] (0.5, 1 and 2 % solutions) is “not affected”. Further, the “Apoptosis Adipocytes (%)” value in the data set on adipocytes (50 µM, 6 hrs) was determined as 132.28%; in the data set with adipocytes (50 µM, 24 hrs), 146.44%; with adipocytes (100 µM, 6 hrs), 503.28%; with adipocytes (100 µM, 24 hrs), 180.88%; in the data set on adipocytes (300 µM, 6 hrs), 1164.30%; with adipocytes (300 µM, 24 hrs), 779.64%.

As to `C[C@H](CCC(=O)O)[C@H]1CC[C@H]2[C@@H]3CC[C@@H]4C[C@H](O)CC[C@]4(C)[C@H]3C[C@H](O)[C@]12C` [Deoxycholic acid], the “Viability Adipocytes (%)” value in data set [1] (10 µM) is recorded as 106.98%; in data set [1] (50 µM), 95.61%; in data set [1] (100 µM) it was 94.30%; in data set [1] (300 µM), 22.06%; in data set [1] (600 µM), 0.11%. For the same compound, the IC50 in data set [1] (Adipocyte, read-out: concentration required to achieve 50%-decrease in vitality of adipocytes) is 200 µM; in data set [1] (setting [5]), 244 µM; in data set [3], 232 µM. Besides, the “Viability Preadipocytes (%)” value in data set [3] (10 µM) is reported as 96.22%; in data set [3] (50 µM) it was 95.61%; in data set [3] (100 µM), 98.03%; in data set [3] (300 µM), 26.08%; in data set [3] (600 µM) it was 0.00%.
